Reference: PMC8011931, “Identification, Structure–Activity Relationship, and Biological Characterization of 2,3,4,5-Tetrahydro-1H-pyrido[4,3-b]indoles as a Novel Class of CFTR Potentiators” (Journal of Medicinal Chemistry, 2020)

Columns and labels:
[1] = biological target: F508del-CFTR (Homo sapiens, UniProt P13569, DEL508-508); test: 24 h co-incubation with correctors, YFP-based functional assay on F508del-CFTR CFBE41o- cells; type: cell-based; parameters: expressed in transfected cells; settings: 39 5 μM with VX-809 1 μM or ARN23765 10 nM
Method: Recent studies have shown that most potentiators have an undesired activity on F508del-CFTR protein processing/trafficking.[39],[40] According to these studies, chronic incubation with potentiators results in decreased activity of VX-809 as a corrector. To test the effect of our potentiators, we incubated F508del-CFTR CFBE41o-cells for 24 h with tetrahydro-γ-carboline 39 (5 μM) together with VX-809 (1 μM) and ARN23765 (10 nM), the picomolar affinity corrector recently reported by our research team.[35] […]
(§1) Prior assay, cells were washed with phosphate-buffered saline (PBS) containing (in mM) 137 NaCl, 2.7 KCl, 8.1 Na2HPO4, 1.5 KH2PO4, 1 CaCl2, and 0.5 MgCl2. […] Cells were then transferred to microplate readers (FluoStar Optima; BMG Labtech, Offenburg, Germany) for CFTR activity determination. The plate readers were equipped with high-quality excitation (HQ500/20X: 500 ± 10 nm) and emission (HQ535/30M: 535 ± 15 nm) filters for YFP (Chroma Technology). The assay consisted of a continuous 14 s fluorescence reading, 2 s before and 12 s after injection of 165 μL of an iodide-containing solution (PBS with Cl^– replaced by I^–; final I^– concentration 100 mM). Data were normalized to the initial background-subtracted fluorescence. […]

[2] = biological target: T1, G551D-CFTR (Homo sapiens, UniProt P13569, G551D); test: HS-YFP-based assay on G551D-CFTR FRT cells; type: cell-based
T1 construct: expressed in transfected cells
Method: The primary hits were confirmed by testing them at different concentrations, in order to extrapolate the dose–response relationship. First, we focused on the F508del mutant. The compounds were tested in the low micromolar range, in the presence of forskolin (10 μM), on F508del-CFTR FRT cells following rescue of the trafficking defect by low-temperature incubation, as done for the primary screening. The most interesting hits were subsequently tested for their ability to overcome the more severe gating defect of pure class III mutant using FRT cells stably expressing G551D-CFTR (Figure 3B).
A small set of selected potentiators with good efficacy and potency on F508del-CFTR FRT cells (Figure 6A) was also tested at three concentrations on G551D-CFTR FRT cells (Figure 6B).
FRT cells stably expressing mutant F508del-CFTR or G551D-CFTR and the halide-sensitive yellow fluorescent protein (HS-YFP) YFP-H148Q/I152L and CFBE41o-cells stably expressing F508del-CFTR and HS-YFP were generated as previously described.[21],[57] FRT cells were cultured using the Coon’s modification of Ham’s F12 medium, while CFBE41o-cells were cultured in the modified Eagle’s medium. Media were supplemented with 10% fetal calf serum, 2 mM L-glutamine, 100 U/mL of penicillin, and […] of streptomycin. […]
as §1

T1 sequence (P13569 whole entry G551D): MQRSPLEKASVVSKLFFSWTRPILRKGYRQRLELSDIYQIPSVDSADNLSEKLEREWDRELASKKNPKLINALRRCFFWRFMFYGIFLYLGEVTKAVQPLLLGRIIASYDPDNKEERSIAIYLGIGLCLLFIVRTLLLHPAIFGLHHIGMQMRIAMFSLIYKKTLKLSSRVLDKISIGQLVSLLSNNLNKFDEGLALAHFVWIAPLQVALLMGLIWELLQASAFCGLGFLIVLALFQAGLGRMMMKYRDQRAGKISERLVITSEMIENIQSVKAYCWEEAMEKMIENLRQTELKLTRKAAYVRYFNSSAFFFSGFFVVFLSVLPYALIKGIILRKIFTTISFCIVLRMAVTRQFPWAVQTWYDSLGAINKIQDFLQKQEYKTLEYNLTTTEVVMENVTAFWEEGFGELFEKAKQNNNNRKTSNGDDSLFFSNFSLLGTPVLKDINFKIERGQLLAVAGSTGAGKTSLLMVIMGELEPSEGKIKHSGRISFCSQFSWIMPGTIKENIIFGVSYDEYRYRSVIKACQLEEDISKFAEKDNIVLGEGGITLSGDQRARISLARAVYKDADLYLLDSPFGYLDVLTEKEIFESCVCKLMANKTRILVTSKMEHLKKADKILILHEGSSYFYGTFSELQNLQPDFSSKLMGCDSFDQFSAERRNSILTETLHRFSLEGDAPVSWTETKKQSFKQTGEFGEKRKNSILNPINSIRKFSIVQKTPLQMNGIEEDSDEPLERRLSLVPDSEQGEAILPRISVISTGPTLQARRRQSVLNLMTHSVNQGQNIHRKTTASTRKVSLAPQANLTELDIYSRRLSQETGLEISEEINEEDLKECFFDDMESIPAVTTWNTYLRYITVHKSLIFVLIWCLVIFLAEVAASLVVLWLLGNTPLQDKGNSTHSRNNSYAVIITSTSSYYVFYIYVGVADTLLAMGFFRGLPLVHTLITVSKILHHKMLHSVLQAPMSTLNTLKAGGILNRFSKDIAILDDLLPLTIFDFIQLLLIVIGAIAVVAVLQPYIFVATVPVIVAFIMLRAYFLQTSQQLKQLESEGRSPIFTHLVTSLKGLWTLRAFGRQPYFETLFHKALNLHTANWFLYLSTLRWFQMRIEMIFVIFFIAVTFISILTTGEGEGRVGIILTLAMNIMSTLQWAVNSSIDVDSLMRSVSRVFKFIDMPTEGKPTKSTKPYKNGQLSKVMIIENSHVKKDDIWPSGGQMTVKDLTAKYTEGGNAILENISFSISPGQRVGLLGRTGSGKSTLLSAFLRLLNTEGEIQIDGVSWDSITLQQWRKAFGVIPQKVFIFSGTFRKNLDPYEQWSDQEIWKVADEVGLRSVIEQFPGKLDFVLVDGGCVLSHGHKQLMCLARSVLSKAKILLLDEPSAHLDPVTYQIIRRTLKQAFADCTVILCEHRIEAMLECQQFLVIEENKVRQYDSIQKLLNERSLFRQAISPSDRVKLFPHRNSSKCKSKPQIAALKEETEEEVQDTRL
F508del-CFTR, sequence (P13569 with tags, fused parts or gaps DEL508-508): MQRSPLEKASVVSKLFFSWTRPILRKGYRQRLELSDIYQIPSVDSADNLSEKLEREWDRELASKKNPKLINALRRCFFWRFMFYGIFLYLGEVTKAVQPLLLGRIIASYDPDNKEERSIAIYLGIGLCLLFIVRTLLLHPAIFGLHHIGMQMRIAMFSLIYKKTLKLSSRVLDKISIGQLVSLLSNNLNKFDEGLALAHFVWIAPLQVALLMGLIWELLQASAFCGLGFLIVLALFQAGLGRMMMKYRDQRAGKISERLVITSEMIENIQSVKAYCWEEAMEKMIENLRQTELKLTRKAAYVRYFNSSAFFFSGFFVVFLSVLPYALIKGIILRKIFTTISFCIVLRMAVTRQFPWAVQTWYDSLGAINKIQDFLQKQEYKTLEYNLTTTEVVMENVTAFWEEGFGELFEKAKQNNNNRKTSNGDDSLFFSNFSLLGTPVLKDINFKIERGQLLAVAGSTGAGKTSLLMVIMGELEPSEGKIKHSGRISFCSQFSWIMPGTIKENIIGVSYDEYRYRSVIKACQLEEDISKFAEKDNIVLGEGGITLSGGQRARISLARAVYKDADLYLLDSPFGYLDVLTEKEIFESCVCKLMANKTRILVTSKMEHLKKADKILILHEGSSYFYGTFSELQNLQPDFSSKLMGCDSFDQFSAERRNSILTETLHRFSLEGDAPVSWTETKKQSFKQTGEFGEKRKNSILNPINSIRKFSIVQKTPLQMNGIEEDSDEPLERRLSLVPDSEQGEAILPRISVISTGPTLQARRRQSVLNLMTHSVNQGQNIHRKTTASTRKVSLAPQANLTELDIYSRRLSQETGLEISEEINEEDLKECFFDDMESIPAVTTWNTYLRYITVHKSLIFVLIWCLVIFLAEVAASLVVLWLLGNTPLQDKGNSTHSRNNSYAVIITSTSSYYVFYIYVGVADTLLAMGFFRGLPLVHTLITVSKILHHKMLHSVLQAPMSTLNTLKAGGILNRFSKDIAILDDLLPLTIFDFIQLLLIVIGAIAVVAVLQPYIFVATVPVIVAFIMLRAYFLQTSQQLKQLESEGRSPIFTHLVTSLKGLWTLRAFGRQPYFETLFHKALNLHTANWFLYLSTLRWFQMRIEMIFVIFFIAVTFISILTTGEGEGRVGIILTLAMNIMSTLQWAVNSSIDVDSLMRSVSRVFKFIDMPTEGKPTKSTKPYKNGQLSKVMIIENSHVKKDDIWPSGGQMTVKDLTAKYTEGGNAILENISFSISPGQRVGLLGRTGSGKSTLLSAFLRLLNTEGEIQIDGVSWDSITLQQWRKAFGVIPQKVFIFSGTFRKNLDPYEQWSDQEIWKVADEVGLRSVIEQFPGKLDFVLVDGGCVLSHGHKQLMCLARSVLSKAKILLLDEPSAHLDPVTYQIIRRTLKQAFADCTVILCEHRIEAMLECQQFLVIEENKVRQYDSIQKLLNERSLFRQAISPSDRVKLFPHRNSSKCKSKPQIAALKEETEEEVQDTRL

Question: With `Cc1ccc(F)c2[nH]c3c(c12)CN(C(=O)c1cc(C(F)(F)F)[nH]n1)[C@H](C)C3` [Compound 39, (R)-(6-Fluoro-3,9-dimethyl-1,3,4,5-tetrahydro-2H-pyrido[4,3-b]indol-2-yl)-(5-(trifluoromethyl)-1H-pyrazol-3-yl)methanone] as the compound, how does the “effect on rescue efficacy of VX-809 or ARN23765” value [1] read?
Answer: did not affect the rescue efficacy

Question: And the “activity compared to VX-770 on G551D-CFTR FRT cells” value ([2]; at 0.56 μM)?
Answer: decrease in activity

Question: What about the “activity compared to VX-770 on G551D-CFTR FRT cells” value ([2]; at the highest concentrations (20–3.3 μM)) of the same compound?
Answer: comparable pattern of activity

Question: And the “potency ranking on G551D-CFTR FRT cells” value ([2]; tested at three concentrations, Figure 6B)?
Answer: the most potent one
